Values quoted from earlier work as cited in patent US5413915A (priority 1991, dated 1995).
Marks after values point to notes of the source that are not given here.

Key:
Salmonella typhimurium = details: cited from earlier work
[1] = in vivo; cited from earlier work
[2] = in vivo; cited from earlier work; remark: listed apart in the source

| Compound | Mutagenicity (Salmonella typhimurium) | Tumorigen Activity [1] | Teratogen Activity [2] | Tumorigen Activity, assignment based on NCI/NTP carcinogenesis bioassay results [1] |
| --- | --- | --- | --- | --- |
| CCOP(=S)(OCC)Oc1nc(Cl)n(C(C)C)n1 [Isozofos (ind.), Isozofos] | -? | -? | -? |  |
| O=S(=O)(O)CCCN1CCOCC1 [MOPS Buffer, morpholinopropanesulfonic acid] | -? | -? | -? |  |
| OC[C@@H](O)[C@@H](O)[C@H](O)[C@H](O)CO [Mannitol] | - | - | - |  |
| CO [Methanol] | - | - | + |  |
| CNC(=O)ON=C(C)SC [Methomyl (ind.), Methomyl] | - | - | - |  |
| C[n+]1ccc(-c2cc[n+](C)cc2)cc1 [Methyl viologen] | + | + | + |  |
| CCc1cccc(C)c1N(C(=O)CCl)C(C)COC (stereo not shown) [Metolachlor (ind.), Metolachlor] | + | - | - |  |
| CNC(=O)Oc1cc(C)c(N(C)C)c(C)c1 [Mexacarbate (ind.), Mexacarbate] | - | +^b | - | - |
| [Cl-].[Na+] [NaCl] | - | - | - |  |
| c1ccc2ccccc2c1 [Naphthalene] |  | +/- | + |  |
| O=C(O)CN(CC(=O)O)CC(=O)O [Nitrilotriacetate] | - | + | + |  |
| O=[O+][O-] [Ozone] | - | +^b | + |  |
| C[n+]1ccc(-c2cc[n+](C)cc2)cc1 [Paraquat (ind.), Paraquat] | + | - | + |  |
| O=C(O)COc1ccccc1 [Phenoxyacetate] | - | - | - |  |
| O=S(=O)(F)Cc1ccccc1 [Phenylmethylsulfonyl fluoride] | - | - | - |  |
| CNC(=O)Oc1ccccc1OC(C)C [Propoxur (ind.), Propoxur] | - | - | - |  |
| CCNc1nc(Cl)nc(NCC)n1 [Simazine (ind.), Simazine] | - | +^e | + |  |
| CCCCCCCCCCCCOS(=O)(=O)[O-].[Na+] [Sodium laurylsulfate] | - | - | - |  |
| NC(CO)(CO)CO [TRIS Buffer, tris(hydroxymethyl-)aminomethane] | - | - | - |  |
| ClC(Cl)=C(Cl)Cl [Tetrachloroethylene] | + | + | + |  |
| O=S(=O)(c1ccc(Cl)cc1)c1cc(Cl)c(Cl)cc1Cl [Tetradifon (ind.), Tetradifon] | - | - | - |  |
| Cc1cc(-c2cc(C)c(N)c(C)c2)cc(C)c1N [Tetramethylbenzidine] | - | - | - |  |
| Cn1c(=O)c2[nH]cnc2n(C)c1=O [Theophylline] |  | - | + |  |
| Cc1ccccc1 [Toluene] |  | - | + |  |
